Several values for one entry are separate records, joined by “and”; a condition that tells them apart may be missing. Identical values can stand only once. Entries after “also recorded” stand apart in the source; their conditions may differ.
How the values were obtained:
HADC100 ESC = test: Flow cytometry of MSC surface markers after ESC to MSC differentiation with ALK-5 inhibitors; type: cell-based, human; set-up: key to CD90 surface marker expression level / CD105 surface marker expression level / CD34 surface marker expression level / CD45 surface marker expression level / CD73 surface marker expression level: % cells positive relative to isotype control background; conditions: for triple positive for CD73, CD90 and CD105: co-expression analysis; for CD90 surface marker expression level / CD34 surface marker expression level / CD45 surface marker expression level / CD73 surface marker expression level / CD105 surface marker expression level: HADC100 ESC, SB525334 10 μM 5 days, GW788388 5 μM 5 days, ± standard deviation; for CD90 surface marker expression level: in %; for CD34 surface marker expression level / CD45 surface marker expression level / CD73 surface marker expression level / CD105 surface marker expression level: in % (unit assumed); for MSC differentiation / differentiating ES-MSC: overall statement of the discussion
Description: An overview of the differentiation process is provided in FIG. 1, panel K. To create cell clusters or embryoid bodies of uniform size, ESCs were removed from CellStart culture using Accutase® for 2-5 minutes until single cells were observed. […] After 24 hours, the cell clusters were suspended at 2.5-3×10^5 cells per ml in ultra-low adherent 6 well plates (Corning) in StemPro-34 serum free medium (ThermoFisher) supplemented with 2 mM L-glutamine (ThermoFisher Scientific), 50 μg/ml Ascorbic acid (Stemcell Technologies, Vancouver, Canada) and 1.8 μl/ml ITS-G (100× Insulin-Transferrin-Selenium; ThermoFisher); termed as “complete SP-34 medium”.
The medium was changed every 2 days by removing cell clusters into 15 ml sterile tubes and permitted to gravity settle for 10 minutes at room temperature. Most of the media was removed using a pipette to leave approximately 300-500 μl of medium. Freshly made medium (with the appropriate ALK5 inhibitor or DMSO) was replaced at the same volumes and well number into new ultra-low adherent plates.
After treatment with the appropriate ALK5 inhibitor, the cell clusters were removed by gravity settling and suspended in complete SP-34 medium supplemented with bFGF 20 ng/ml (without any ALK-5 inhibitor or DMSO) and transferred onto fibronectin (FN) coated (10 μg/ml; Fibronectin from human plasma, Sigma-Aldrich, St. Louis, MO) T75 cm^2 flasks (passage zero (P0)). The emerging cells and remaining cell clusters were exposed to Accutase® for 5-10 minutes, gently triturated and counted. The cells were seeded at […] in T75 FN coated flask (P1) and medium changed every 3-4 days until 80-90% confluence. At this point, the cells were detached using Accutase® for continued culture, screened for surface marker phenotype characterization (flow cytometry), placed into 3D cultures to assess chondrogenic differentiation capacity, or preserved in liquid nitrogen.
Cells were detached using Accutase®, washed and suspended in FACS buffer at a concentration of 0.2×10^6 cells per 100 μl. A panel of CD molecules were used, each with the following fluorochromes: CD34-FITC, CD45-BV510, CD73-APC (BioLegend, San Diego, California) CD90-PE-Cy7, and CD105-BV650 (BD Biosciences, Franklin Lakes, New Jersey). Matching isotype control IgGs with the same fluorochrome conjugates were used for background gating. For compensation of spectral overlap, unstained cells, and individual tubes with each fluorochrome were incubated with Dynabeads to distinguish between positive and negative fluorochrome signals. Data was acquired with the Novocyte flow cytometer (ACEA Biosciences Inc. San Diego, CA) and analyzed using FlowJo software (version 10, FlowJo, LLC, Ashland, OR) to determine percentage positive signal for each molecule relative to isotype background non-specific signal controls.

HADC 100 ES-MSC = test: Pellet culture chondrogenesis, histology and immunohistochemistry; type: cell-based, human; conditions: 3 weeks; for cartilage-like tissue formation in high density pellets: HADC 100 ES-MSC, Safranin-O, collagen type I and II
Description: Monolayer-expanded ES-MSC (passage 2-5) were detached using Accutase® and 0.5×10^6 cells in 0.5 ml of chondrogenic medium were centrifuged at 900 rpm (~770 G) for 5 minutes to form high-density pellets. At least 5-6 pellets, for each ES-MSC condition, were cultured in serum-free chondrogenic medium consisting of Dulbecco's Modified Eagle Medium (Mediatech Inc., Manassas, VA), 1×ITS supplement (Sigma-Aldrich, St. Louis, MO), 100 nM Dexamethasone (Sigma), 1.25 mg/ml human serum albumin (Bayer, Leverkusen, Germany), 100 μM ascorbic acid 2-phosphate (Sigma), 1% penicillin/streptomycin/gentamycin (PSG, Gibco, Carlsbad, CA), and 10 ng/ml TGFβ3 (PeproTech, Rocky Hill, NJ). Pellets for ex vivo implantation were cultured for 3 days before implantation; pellets for histologic or gene expression analysis were maintained in culture for 3 weeks with media changes every 3 to 4 days.
Cell pellets and explants were fixed in Z-Fix (3.7% formaldehyde, Anatech Ltd., Battle Creek, MI), processed for embedding in paraffin, and cut into 4 μm-thick sections. Sections were stained with Safranin-O and Fast Green to visualize glycosaminoglycan distribution in the tissues. Alzarin Red S staining was used to detect the presence of mineralized matrix.
For assessment of collagen types I and II, sections were pretreated with pepsin (Digest-All 3, Thermo Fisher Scientific) for 9 minutes at 37° C. in a humid chamber before incubation at 4° C. for 12 to 16 hours with the following primary antibodies: rabbit anti-human collagen type I antibody (Ab 34710, Abcam, Cambridge, MA) 1 μg/ml; or mouse anti-human collagen type II (II-II6B3, Hybridoma Bank, University of Iowa) 2 μg/ml. For color development, the ImmPRESS secondary DAB (brown) or AP (red) kits (Vector Laboratories, Burlingame, CA) was used. Isotype controls were used to monitor non-specific staining.

[1] = N=4, SB431542 10 μM 10 days, listed as SB52
[2] = HADC 100 ES-MSC, SB431542 10 μM 10 days, N=4
[3] = N=4, SB431542 10 μM 10 days, listed as SB43

SMILES | triple positive for CD73, CD90 and CD105 (HADC100 ESC; HADC 100 ES-MSC) [%] | CD90 surface marker expression level (HADC100 ESC; N=4, SB431542 10 μM 10 days) | CD34 surface marker expression level (HADC100 ESC; N=4, SB431542 10 μM 10 days) | CD45 surface marker expression level (HADC100 ESC; N=4, SB431542 10 μM 10 days) | CD73 surface marker expression level (HADC100 ESC; N=4, SB431542 10 μM 10 days) | CD105 surface marker expression level (HADC100 ESC; N=4, SB431542 10 μM 10 days) | CD90 surface marker expression level (HADC100 ESC; [1]) | CD105 surface marker expression level (HADC100 ESC; [1]) | MSC differentiation / differentiating ES-MSC (HADC100 ESC) | staining for GAGs, collagen type II and collagen type I in pellets compared to the other ALK5 inhibitors (HADC 100 ES-MSC; HADC 100 ES-MSC pellets) | cartilage-like tissue formation in high density pellets (HADC 100 ES-MSC) | CD73 positive cells (HADC100 ESC; HADC 100 ES-MSC) | CD90 positive cells (HADC100 ESC; [2]) [%] | CD105 positive cells (HADC100 ESC; [2]) [%] | CD90 surface marker expression level (HADC100 ESC; [3]) | CD105 surface marker expression level (HADC100 ESC; [3])
Cc1cccc(-c2[nH]c(C(C)(C)C)nc2-c2ccc3nccnc3c2)n1 [SB525334] | 87±8 | 93.9±7.6 | 1.9 ± 0.9 | 1.5 ± 0.5 | 99.2 ± 1.0 | 85.4±12.2 | 93.9 ± 7.6 | 85.4 ± 12.2 | successfully induced MSC differentiation; also recorded: equally effective | most consistent staining for GAGs and collagen type II, and lower collagen type I signal; also recorded: most uniform GAGs and collagen type II deposition, and with reduced collagen type I | also produced cartilage-like tissue |  |  |  |  | 
NC(=O)c1ccc(-c2nc(-c3ccc4c(c3)OCO4)c(-c3ccccn3)[nH]2)cc1 [SB431542] | 88±8 | 87.6±10.4 | 1.8 ± 0.9 | 1.2 ± 0.5 | 93.6 ± 11.8 | 86.1±6.5 |  |  | equally effective |  | consistently produced cartilage like-tissue | 94±12% and 93.6±11.8% | 88±10 | 86±7 | 87.6 ± 10.4 | 86.1 ± 6.5

— US20260242738A1, “ALK5 INHIBITORS FOR EFFICIENT DERIVATION OF MESENCHYMAL STEM CELLS FROM EMBRYONIC STEM CELLS” (SCRIPPS HEALTH, priority 2022, published 2026)
